In patent US12528802B2, “Heterocyclic compound” (Takeda Pharmaceutical Company Limited, priority 2019, dated 2026):

These molecules were tested against T1, glucosylceramide synthase (Homo sapiens, UniProt Q16739) (assay: Glucosylceramide synthase (GCS) enzyme assay, microsome fraction, C8 glucosylceramide quantified by Rapidfire MS/MS). Conditions: test compound 10 μM; 1.7 μM UDP-glucose, 3 μM C8 ceramide; room temperature 60 min.
T1 construct: made in house; host or cells: Expi293F cells (transient expression, pcDNA3.3-TOPO vector); microsome fraction used as enzyme source
T1 sequence (Q16739 1-394): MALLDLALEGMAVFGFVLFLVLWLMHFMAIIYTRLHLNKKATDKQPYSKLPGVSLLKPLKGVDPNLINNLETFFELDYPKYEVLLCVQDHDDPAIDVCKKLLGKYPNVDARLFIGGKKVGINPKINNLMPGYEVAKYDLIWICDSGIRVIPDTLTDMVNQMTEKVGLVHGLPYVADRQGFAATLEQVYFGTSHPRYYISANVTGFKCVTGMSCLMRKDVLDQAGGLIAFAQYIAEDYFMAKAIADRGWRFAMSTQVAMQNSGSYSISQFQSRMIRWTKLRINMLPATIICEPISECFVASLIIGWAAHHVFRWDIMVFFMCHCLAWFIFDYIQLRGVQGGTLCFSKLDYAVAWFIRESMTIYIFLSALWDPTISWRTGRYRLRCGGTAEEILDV
Format: biochemical
Procedure: Glucosylceramide Synthase (GCS) Assay
In enzyme assay, a microsome fraction obtained by transient expression by Expi293F™ cells (catalog number: A14527, Thermo Fisher Scientific) was used as a glucosylceramide synthase source. Liposomal C8 ceramide and UDP-glucose were used as substrates. […] After the enzymatic reaction, the analysis was performed with Rapidfire MS/MS (API-4000™, SCIEX), and C8 glucosylceramide was quantified to evaluate the inhibitory activity of the test compound against glucosylceramide synthase activity.
PcDNA3.3TOPO vector (catalog number: K830001, Thermo Fisher Scientific) into which the human GCS gene was inserted was introduced into Expi293F™ Cells (catalog number: A14527, Thermo Fisher Scientific) by using ExpiFectamine™ 293 Transfection Kit (catalog number: A14525, Thermo Fisher Scientific). The cultured cells were dissolved in D-PBS (catalog number: 048-29805, Fuji Film Wako Pure Chemical Industries, Ltd.) containing 1 mM PMSF, and the solution was allowed to stand on ice for 30 minutes, and then subjected to cell disruption (homogenized). The disruption solution was centrifuged at 10,000×g for 20 minutes at 4° C., and the obtained supernatant was centrifuged at 142,400×g for 60 minutes at 4° C. The obtained precipitate was resuspended in a D-PBS solution containing 1 mM PMSF, and homogenized again to prepare as a microsome fraction. Protein quantification was performed by the CBB method.
A 1 mM compound solution prepared by dissolving the test compound in DMSO was added to a 384-well plate by 100 nL so that the final concentration of the test compound was 10 μM. Next, a substrate solution consisting of 3.4 μM UDP-glucose and 6 μM C8 ceramide was added by 5 μL, followed by an enzyme solution consisting of a 25 μg/mL microsome fraction by 5 μL. C8 ceramide was prepared from liposomes composed of 15 mol % C8 ceramide and 85 mol % dioleoyl phosphatidylcholine (1,2-dioleoyl-sn-glycero-3-phosphocholine: DOPC). The enzymatic reaction was carried out in a solution consisting of 20 mM tris-hydrochloric acid buffer (pH 7.5), 0.01% Tween 20, 0.01% bovine serum albumin and 1 mM dithiothreitol at room temperature for 60 min. Then, a solution consisting of 75% isopropanol and 1% formic acid containing 0.25 μM N-Octadecanoyl-D35-psichosine (catalog number: 1914, Matreya) as an internal standard substance was added by 60 μL to stop the enzymatic reaction. 5 μL of the centrifugal supernatant of the obtained reaction product was analyzed by Rapidfire MS/MS (Agilent Technologies) using API-4000™ (SCIEX), and the C8 glucosylceramide was quantified to evaluate the inhibitory activity of the test compound against the glucosylceramide synthase activity. The inhibitory activity of the test compound was evaluated when the C8 glucosylceramide level in the enzyme-free solution was considered as 100% inhibitory and the enzyme activity of the DMSO group in the absence of the compound was considered as 0% inhibitory.

| GCS enzyme inhibitory rate at 10 μM (%) (% of control) | SMILES |
| --- | --- |
| 99 | O=C1c2ccnc(-c3ccc(F)cc3OCC(F)(F)F)c2CN1c1ccc(C(O)C(F)F)cc1 (single isomer, unassigned) [Example 279, (R or S)-2-[4-(2,2-difluoro-1-hydroxyethyl)phenyl]-4-[4-fluoro-2-(2,2,2-trifluoroethoxy)phenyl]-2,3-dihydro-1H-pyrrolo[3,4-c]pyridin-1-one] |
| 96 | O=C1c2ccnc(-c3ccc(F)cc3OCC(F)(F)F)c2CN1c1ccc(C(O)C(F)(F)F)cc1 (single isomer, unassigned) [Example 286, (R or S)-4-[4-fluoro-2-(2,2,2-trifluoroethoxy)phenyl]-2-[4-(2,2,2-trifluoro-1-hydroxyethyl)phenyl]-2,3-dihydro-1H-pyrrolo [3,4-c]pyridin-1-one] |
| 97 | O=C1c2ccnc(-c3ccc(F)cc3OCC(F)(F)F)c2CN1c1ccc(C2(O)CCOC2)cn1 (single isomer, unassigned) [Example 301, (R or S)-4-[4-fluoro-2-(2,2,2-trifluoroethoxy)phenyl]-2-[5-(3-hydroxyoxolan-3-yl)pyridin-2-yl]-2,3-dihydro-1H-pyrrolo [3,4-c]pyridin-1-one] |

Same assay, conditions: test compound 10 μM; 1.7 μM UDP-glucose, 3 μM C8 ceramide; room temperature 60 min; read-out: GCS enzyme inhibitory rate at 10 μM (%) (% of control)

| inhibition at 10 µM [%] | SMILES |
| --- | --- |
| 99 | O=C1c2ccnc(-c3ccc(F)cc3OCC(F)(F)F)c2CN1c1ccc(C(O)C(F)F)cc1 (single isomer, unassigned) [Example 278, (R or S)-2-[4-(2,2-difluoro-1-hydroxyethyl)phenyl]-4-[4-fluoro-2-(2,2,2-trifluoroethoxy)phenyl]-2,3-dihydro-1H-pyrrolo[3,4-c]pyridin-1-one] |
| 97 | O=C1c2ccnc(-c3ccc(F)cc3OCC(F)(F)F)c2CN1c1ccc(C(O)C(F)(F)F)cc1 (single isomer, unassigned) [Example 285, (R or S)-4-[4-fluoro-2-(2,2,2-trifluoroethoxy)phenyl]-2-[4-(2,2,2-trifluoro-1-hydroxyethyl)phenyl]-2,3-dihydro-1H-pyrrolo [3,4-c]pyridin-1-one] |
| 98 | O=C1c2ccnc(-c3ccc(F)cc3OCC(F)(F)F)c2CN1c1ccc(C2(O)CCOC2)cn1 (single isomer, unassigned) [Example 300, (R or S)-4-[4-fluoro-2-(2,2,2-trifluoroethoxy)phenyl]-2-[5-(3-hydroxyoxolan-3-yl)pyridin-2-yl]-2,3-dihydro-1H-pyrrolo [3,4-c]pyridin-1-one] |
| 100 | CC(O)(c1ccc(N2Cc3c(ccnc3-c3ccc(F)cc3OCC(F)(F)F)C2=O)cc1)C(F)F (single isomer, unassigned) [Example 311, (R or S)-2-[4-(1,1-difluoro-2-hydroxypropan-2-yl)phenyl]-4-[4-fluoro-2-(2,2,2-trifluoroethoxy)phenyl]-2,3-dihydro-1H-pyrrolo[3,4-c]pyridin-1-one] |
| 100 | CC(O)(c1ccc(N2Cc3c(ccnc3-c3ccccc3OCC(F)(F)F)C2=O)cc1)C(F)F (single isomer, unassigned) [Example 315, (R or S)-2-[4-(1,1-difluoro-2-hydroxypropan-2-yl)phenyl]-4-[2-(2,2,2-trifluoroethoxy)phenyl]-2,3-dihydro-1H-pyrrolo[3,4-c]pyridin-1-one] |
| 78 | COc1ccccc1-c1nccc2c1CN(c1ccc(F)cc1)C2=O [Example 1, 2-(4-fluorophenyl)-4-(2-methoxyphenyl)-2,3-dihydro-1H-pyrrolo[3,4-c]pyridin-1-one] |
| 98 | COc1ccccc1-c1nccc2c1CN(c1ccc(OC(F)(F)F)cc1)C2=O [Example 3, 4-(2-methoxyphenyl)-2-[4-(trifluoromethoxy)phenyl]-2,3-dihydro-1H-pyrrolo[3,4-c]pyridin-1-one] |
| 99 | COc1ccccc1-c1nccc2c1CN(c1ccc(C3CC3)cc1)C2=O [Example 4, 2-(4-cyclopropylphenyl)-4-(2-methoxyphenyl)-2,3-dihydro-1H-pyrrolo[3,4-c]pyridin-1-one] |
| 100 | COc1ccccc1-c1nccc2c1CN(c1ccc(Oc3ccccc3)cc1)C2=O [Example 5, 4-(2-methoxyphenyl)-2-(4-phenoxyphenyl)-2,3-dihydro-1H-pyrrolo[3,4-c]pyridin-1-one] |
| 95 | COc1ccccc1-c1nccc2c1CN(c1ccc(C(F)(F)F)cc1)C2=O [Example 6, 4-(2-methoxyphenyl)-2-[4-(trifluoromethyl)phenyl]-2,3-dihydro-1H-pyrrolo[3,4-c]pyridin-1-one] |
| 70 | COc1cc(F)ccc1-c1nccc2c1CN(c1ccc(F)cc1)C2=O [Example 7, 4-(4-fluoro-2-methoxyphenyl)-2-(4-fluorophenyl)-2,3-dihydro-1H-pyrrolo[3,4-c]pyridin-1-one] |
| 63 | O=C1c2ccnc(-c3ccc(F)cc3OCC(F)(F)F)c2CN1c1ccc(F)cc1 [Example 13, 2-(4-fluorophenyl)-4-[4-fluoro-2-(2,2,2-trifluoroethoxy)phenyl]-2,3-dihydro-1H-pyrrolo[3,4-c]pyridin-1-one] |
| 73 | O=C1c2ccnc(-c3ccc(F)cc3OCC(F)F)c2CN1c1ccc(F)cc1 [Example 16, 4-[2-(2,2-difluoroethoxy)-4-fluorophenyl]-2-(4-fluorophenyl)-2,3-dihydro-1H-pyrrolo[3,4-c]pyridin-1-one] |
| 56 | COc1ccccc1-c1nccc2c1CN(c1ccc(C#N)cc1)C2=O [Example 18, 4-[4-(2-methoxyphenyl)-1-oxo-1,3-dihydro-2H-pyrrolo[3,4-c]pyridin-2-yl]benzonitrile] |
| 99 | COc1ccccc1-c1nccc2c1CN(c1ccc(C)cc1)C2=O [Example 23, 4-(2-methoxyphenyl)-2-(4-methylphenyl)-2,3-dihydro-1H-pyrrolo[3,4-c]pyridin-1-one] |
| 89 | COc1ccc(N2Cc3c(ccnc3-c3ccccc3OC)C2=O)cc1 [Example 24, 4-(2-methoxyphenyl)-2-(4-methoxyphenyl)-2,3-dihydro-1H-pyrrolo[3,4-c]pyridin-1-one] |
| 99 | COc1ccccc1-c1nccc2c1CN(c1ccc(OC(F)F)cc1)C2=O [Example 25, 2-[4-(difluoromethoxy)phenyl]-4-(2-methoxyphenyl)-2,3-dihydro-1H-pyrrolo[3,4-c]pyridin-1-one] |
| 92 | COc1ccccc1-c1nccc2c1CN(c1ccc(OC(F)(F)F)nc1)C2=O [Example 26, 4-(2-methoxyphenyl)-2-[6-(trifluoromethoxy)pyridin-3-yl]-2,3-dihydro-1H-pyrrolo[3,4-c]pyridin-1-one] |
| 93 | COc1ccccc1-c1nccc2c1CN(c1ccc(OC(F)F)nc1)C2=O [Example 27, 2-[6-(difluoromethoxy)pyridin-3-yl]-4-(2-methoxyphenyl)-2,3-dihydro-1H-pyrrolo[3,4-c]pyridin-1-one] |
| 84 | O=C1c2ccnc(-c3ccccc3OC(F)F)c2CN1c1ccc(F)cc1 [Example 28, 4-[2-(difluoromethoxy)phenyl]-2-(4-fluorophenyl)-2,3-dihydro-1H-pyrrolo[3,4-c]pyridin-1-one] |
| 96 | COc1ccccc1-c1nccc2c1CN(c1ccc(OC(F)(F)F)cn1)C2=O [Example 29, 4-(2-methoxyphenyl)-2-[5-(trifluoromethoxy)pyridin-2-yl]-2,3-dihydro-1H-pyrrolo[3,4-c]pyridin-1-one] |
